Assay results from patent publication US5977063A, “Alkylated hexapeptides” (Eli Lilly and Company, priority 1998, dated 1999).

What was measured:
Assay type in all cases: cell-based
[1] = tested on: Enterococcus faecium and faecalis (RESISTANT); settings: geometric mean of 4-6 isolates
Procedure: (§1) The antibacterial efficacy of the present compounds is illustrated by Table II. The minimal inhibitory concentrations (MICs) were determined using a standard broth micro-dilution assay.

[2] = tested on: Enterococcus faecium and faecalis (SENSITIVE); assay: MIC, standard broth micro-dilution assay, SENSITIVE enterococci; set-up: unit not given here; settings: geometric mean of 4-6 isolates
Procedure: as §1

[3] = tested on: Staphylococcus aureus 446; assay: MIC, standard broth micro-dilution assay, SA 446; set-up: unit not given here
Procedure: as §1

[4] = tested on: Staphylococcus aureus 489; assay: MIC, standard broth micro-dilution assay, SA 489; set-up: unit not given here
Procedure: as §1

[5] = tested on: Staphylococcus aureus 447; assay: MIC, standard broth micro-dilution assay, SA 447; set-up: unit not given here
Procedure: as §1

[6] = tested on: Staphylococcus haemolyticus 105; assay: MIC, standard broth micro-dilution assay, SH 105; set-up: unit not given here
Procedure: as §1

[7] = tested on: Staphylococcus haemolyticus 415; assay: MIC, standard broth micro-dilution assay, SH 415; set-up: unit not given here
Procedure: as §1

[8] = tested on: Staphylococcus epidermidis 270; assay: MIC, standard broth micro-dilution assay, SE 270; set-up: unit not given here
Procedure: as §1

[9] = tested on: Streptococcus pyogenes C203; assay: MIC, standard broth micro-dilution assay, SPY C203; set-up: unit not given here
Procedure: as §1

[10] = tested on: Streptococcus pneumoniae P1; assay: MIC, standard broth micro-dilution assay, SPN P1; set-up: unit not given here
Procedure: as §1

CCCCCCN[C@H]1C(=O)N[C@@H](CC(N)=O)C(=O)N[C@H]2C(=O)N[C@H]3C(=O)N[C@H](C(=O)N[C@H](C(=O)O)c4cc(O)cc(O)c4-c4cc3ccc4O)[C@H](O[C@H]3C[C@](C)(N)[C@@H](O)[C@H](C)O3)c3ccc(c(Cl)c3)Oc3cc2cc(c3O[C@@H]2O[C@H](CO)[C@@H](O)[C@H](O)[C@H]2O[C@H]2C[C@](C)(N)[C@@H](O)[C@H](C)O2)Oc2ccc(cc2Cl)[C@H]1O [Example 10, N^1 -n-HEXYLDESLEUCYL-A82846B]
Minimal Inhibitory Concentration (MIC) RESISTANT [1]: > 128 | Minimal Inhibitory Concentration (MIC) SENSITIVE [2]: > 128 | Minimal Inhibitory Concentration (MIC) SA 446 [3]: 32 | Minimal Inhibitory Concentration (MIC) SA 489 [4]: 16 | Minimal Inhibitory Concentration (MIC) SA 447 [5]: 32 | Minimal Inhibitory Concentration (MIC) SH 105 [6]: 64 | Minimal Inhibitory Concentration (MIC) SH 415 [7]: 64 | Minimal Inhibitory Concentration (MIC) SE 270 [8]: 32 | Minimal Inhibitory Concentration (MIC) SPY C203 [9]: 16 | Minimal Inhibitory Concentration (MIC) SPN P1 [10]: 32

CCCCCCN[C@H]1C(=O)N[C@@H](CC(N)=O)C(=O)N[C@H]2C(=O)N[C@H]3C(=O)N[C@H](C(=O)N[C@H](C(=O)O)c4cc(O)cc(O)c4-c4cc3ccc4O)[C@H](O[C@H]3C[C@](C)(N)[C@@H](O)[C@H](C)O3)c3ccc(c(Cl)c3)Oc3cc2cc(c3O[C@@H]2O[C@H](CO)[C@@H](O)[C@H](O)[C@H]2O[C@H]2C[C@](C)(NCc3ccc(-c4ccccc4)cc3)[C@@H](O)[C@H](C)O2)Oc2ccc(cc2Cl)[C@H]1O [Example 11, N^1 -n-HEXYL-N^DISACC -(p-PHENYLBENZYL)-DESLEUCYL-A82846B]
Minimal Inhibitory Concentration (MIC) RESISTANT [1]: 27 | Minimal Inhibitory Concentration (MIC) SENSITIVE [2]: 11 | Minimal Inhibitory Concentration (MIC) SA 446 [3]: 1 | Minimal Inhibitory Concentration (MIC) SA 489 [4]: 1 | Minimal Inhibitory Concentration (MIC) SA 447 [5]: 0.5 | Minimal Inhibitory Concentration (MIC) SH 105 [6]: 2 | Minimal Inhibitory Concentration (MIC) SH 415 [7]: 1 | Minimal Inhibitory Concentration (MIC) SE 270 [8]: 0.5 | Minimal Inhibitory Concentration (MIC) SPY C203 [9]: 0.125 | Minimal Inhibitory Concentration (MIC) SPN P1 [10]: 0.125

C[C@@H]1O[C@@H](O[C@H]2[C@H](Oc3c4cc5cc3Oc3ccc(cc3Cl)[C@@H](O[C@H]3C[C@](C)(N)[C@@H](O)[C@H](C)O3)[C@@H]3NC(=O)[C@H](NC(=O)[C@@H]5NC(=O)[C@H](CC(N)=O)NC(=O)[C@H](NCc5ccccc5)[C@H](O)c5ccc(c(Cl)c5)O4)c4ccc(O)c(c4)-c4c(O)cc(O)cc4[C@@H](C(=O)O)NC3=O)O[C@H](CO)[C@@H](O)[C@@H]2O)C[C@](C)(N)[C@H]1O [Example 12, N^1 -BENZYLDESLEUCYL-A82846B]
Minimal Inhibitory Concentration (MIC) RESISTANT [1]: > 128 | Minimal Inhibitory Concentration (MIC) SENSITIVE [2]: 128 | Minimal Inhibitory Concentration (MIC) SA 446 [3]: > 64 | Minimal Inhibitory Concentration (MIC) SA 489 [4]: 64 | Minimal Inhibitory Concentration (MIC) SA 447 [5]: > 64 | Minimal Inhibitory Concentration (MIC) SH 105 [6]: > 64 | Minimal Inhibitory Concentration (MIC) SH 415 [7]: > 64 | Minimal Inhibitory Concentration (MIC) SE 270 [8]: > 64 | Minimal Inhibitory Concentration (MIC) SPY C203 [9]: 2 | Minimal Inhibitory Concentration (MIC) SPN P1 [10]: 2

C[C@@H]1O[C@@H](O[C@H]2[C@H](Oc3c4cc5cc3Oc3ccc(cc3Cl)[C@@H](O[C@H]3C[C@](C)(N)[C@@H](O)[C@H](C)O3)[C@@H]3NC(=O)[C@H](NC(=O)[C@@H]5NC(=O)[C@H](CC(N)=O)NC(=O)[C@H](NCc5ccc(O)cc5)[C@H](O)c5ccc(c(Cl)c5)O4)c4ccc(O)c(c4)-c4c(O)cc(O)cc4[C@@H](C(=O)O)NC3=O)O[C@H](CO)[C@@H](O)[C@@H]2O)C[C@](C)(N)[C@H]1O [Example 13, N^1 -(p-HYDROXYBENZYL)-DESLEUCYL-A82846B]
Minimal Inhibitory Concentration (MIC) RESISTANT [1]: 54 | Minimal Inhibitory Concentration (MIC) SENSITIVE [2]: 4 | Minimal Inhibitory Concentration (MIC) SA 446 [3]: 16 | Minimal Inhibitory Concentration (MIC) SA 489 [4]: 8 | Minimal Inhibitory Concentration (MIC) SA 447 [5]: 32 | Minimal Inhibitory Concentration (MIC) SH 105 [6]: > 64 | Minimal Inhibitory Concentration (MIC) SH 415 [7]: > 64 | Minimal Inhibitory Concentration (MIC) SE 270 [8]: 32 | Minimal Inhibitory Concentration (MIC) SPY C203 [9]: 0.25 | Minimal Inhibitory Concentration (MIC) SPN P1 [10]: ≤ .06

C[C@@H]1O[C@@H](O[C@H]2[C@H](Oc3c4cc5cc3Oc3ccc(cc3Cl)[C@@H](O[C@H]3C[C@](C)(N)[C@@H](O)[C@H](C)O3)[C@@H]3NC(=O)[C@H](NC(=O)[C@@H]5NC(=O)[C@H](CC(N)=O)NC(=O)[C@H](NCCCCCCc5ccccc5)[C@H](O)c5ccc(c(Cl)c5)O4)c4ccc(O)c(c4)-c4c(O)cc(O)cc4[C@@H](C(=O)O)NC3=O)O[C@H](CO)[C@@H](O)[C@@H]2O)C[C@](C)(N)[C@H]1O [Example 14, N^1 -(6-PHENYL-n-HEXYL)DESLEUCYL-A82846B]
Minimal Inhibitory Concentration (MIC) RESISTANT [1]: > 50 | Minimal Inhibitory Concentration (MIC) SENSITIVE [2]: 37 | Minimal Inhibitory Concentration (MIC) SA 446 [3]: 16 | Minimal Inhibitory Concentration (MIC) SA 489 [4]: 8 | Minimal Inhibitory Concentration (MIC) SA 447 [5]: 8 | Minimal Inhibitory Concentration (MIC) SH 105 [6]: 8 | Minimal Inhibitory Concentration (MIC) SH 415 [7]: 8 | Minimal Inhibitory Concentration (MIC) SE 270 [8]: 8 | Minimal Inhibitory Concentration (MIC) SPY C203 [9]: ≤ .06 | Minimal Inhibitory Concentration (MIC) SPN P1 [10]: ≤ .06

C[C@@H]1O[C@@H](O[C@@H]2c3ccc(c(Cl)c3)Oc3cc4cc(c3O[C@@H]3O[C@H](CO)[C@@H](O)[C@H](O)[C@H]3O[C@H]3C[C@](C)(NCCCCCCc5ccccc5)[C@@H](O)[C@H](C)O3)Oc3ccc(cc3Cl)[C@@H](O)[C@@H](NCCCCCCc3ccccc3)C(=O)N[C@@H](CC(N)=O)C(=O)N[C@H]4C(=O)N[C@H]3C(=O)N[C@@H]2C(=O)N[C@H](C(=O)O)c2cc(O)cc(O)c2-c2cc3ccc2O)C[C@](C)(N)[C@H]1O [Example 15, N^1,N^DISACC -BIS(6-PHENYL-n-HEXYL) -DESLEUCYL-A82846B]
Minimal Inhibitory Concentration (MIC) RESISTANT [1]: 8 | Minimal Inhibitory Concentration (MIC) SENSITIVE [2]: 6 | Minimal Inhibitory Concentration (MIC) SA 446 [3]: 4 | Minimal Inhibitory Concentration (MIC) SA 489 [4]: 2 | Minimal Inhibitory Concentration (MIC) SA 447 [5]: 2 | Minimal Inhibitory Concentration (MIC) SH 105 [6]: 1 | Minimal Inhibitory Concentration (MIC) SH 415 [7]: 2 | Minimal Inhibitory Concentration (MIC) SE 270 [8]: 2 | Minimal Inhibitory Concentration (MIC) SPY C203 [9]: 0.125 | Minimal Inhibitory Concentration (MIC) SPN P1 [10]: 0.5

C[C@@H]1O[C@@H](O[C@@H]2c3ccc(c(Cl)c3)Oc3cc4cc(c3O[C@@H]3O[C@H](CO)[C@@H](O)[C@H](O)[C@H]3O[C@H]3C[C@](C)(NCCCCCCCCCCc5ccccc5)[C@@H](O)[C@H](C)O3)Oc3ccc(cc3Cl)[C@@H](O)[C@@H](NCCCCCCCCCCc3ccccc3)C(=O)N[C@@H](CC(N)=O)C(=O)N[C@H]4C(=O)N[C@H]3C(=O)N[C@@H]2C(=O)N[C@H](C(=O)O)c2cc(O)cc(O)c2-c2cc3ccc2O)C[C@](C)(N)[C@H]1O [Example 16, N^1,N^DISACC -BIS(10 PHENYL-n-DECYL)-DESLEUCYL-A82846B]
Minimal Inhibitory Concentration (MIC) RESISTANT [1]: > 128 | Minimal Inhibitory Concentration (MIC) SENSITIVE [2]: > 11 | Minimal Inhibitory Concentration (MIC) SA 446 [3]: > 64 | Minimal Inhibitory Concentration (MIC) SA 489 [4]: 64 | Minimal Inhibitory Concentration (MIC) SA 447 [5]: > 64 | Minimal Inhibitory Concentration (MIC) SH 105 [6]: > 64 | Minimal Inhibitory Concentration (MIC) SH 415 [7]: > 64 | Minimal Inhibitory Concentration (MIC) SE 270 [8]: > 64 | Minimal Inhibitory Concentration (MIC) SPY C203 [9]: 8 | Minimal Inhibitory Concentration (MIC) SPN P1 [10]: 16

C[C@@H]1O[C@@H](O[C@@H]2c3ccc(c(Cl)c3)Oc3cc4cc(c3O[C@@H]3O[C@H](CO)[C@@H](O)[C@H](O)[C@H]3O[C@H]3C[C@](C)(NCc5ccc(-c6ccccc6)cc5)[C@@H](O)[C@H](C)O3)Oc3ccc(cc3Cl)[C@@H](O)[C@@H](NCc3ccc(O)cc3)C(=O)N[C@@H](CC(N)=O)C(=O)N[C@H]4C(=O)N[C@H]3C(=O)N[C@@H]2C(=O)N[C@H](C(=O)O)c2cc(O)cc(O)c2-c2cc3ccc2O)C[C@](C)(N)[C@H]1O [Example 17, N^1 -(p-HYDROXYBENZYL)-N^DISACC -(p-PHENYLBENZYL)-DESLEUCYL-A82846B]
Minimal Inhibitory Concentration (MIC) RESISTANT [1]: 27 | Minimal Inhibitory Concentration (MIC) SENSITIVE [2]: 2.6 | Minimal Inhibitory Concentration (MIC) SA 446 [3]: 1 | Minimal Inhibitory Concentration (MIC) SA 489 [4]: 1 | Minimal Inhibitory Concentration (MIC) SA 447 [5]: 0.5 | Minimal Inhibitory Concentration (MIC) SH 105 [6]: 0.5 | Minimal Inhibitory Concentration (MIC) SH 415 [7]: 1 | Minimal Inhibitory Concentration (MIC) SE 270 [8]: 0.5 | Minimal Inhibitory Concentration (MIC) SPY C203 [9]: ≤ .06 | Minimal Inhibitory Concentration (MIC) SPN P1 [10]: ≤ .06

C[C@@H]1O[C@@H](O[C@H]2[C@H](Oc3c4cc5cc3Oc3ccc(cc3Cl)[C@@H](O[C@H]3C[C@](C)(N)[C@@H](O)[C@H](C)O3)[C@@H]3NC(=O)[C@H](NC(=O)[C@@H]5NC(=O)[C@H](CC(N)=O)NC(=O)[C@H](NCCCCCCCCCCc5ccccc5)[C@H](O)c5ccc(c(Cl)c5)O4)c4ccc(O)c(c4)-c4c(O)cc(O)cc4[C@@H](C(=O)O)NC3=O)O[C@H](CO)[C@@H](O)[C@@H]2O)C[C@](C)(N)[C@H]1O [Example 18, N^1 -(10-PHENYL-n-DECYL)DESLEUCYL-A82846B]
Minimal Inhibitory Concentration (MIC) RESISTANT [1]: 19 | Minimal Inhibitory Concentration (MIC) SENSITIVE [2]: 12 | Minimal Inhibitory Concentration (MIC) SA 446 [3]: 2 | Minimal Inhibitory Concentration (MIC) SA 489 [4]: 2 | Minimal Inhibitory Concentration (MIC) SA 447 [5]: 2 | Minimal Inhibitory Concentration (MIC) SH 105 [6]: 4 | Minimal Inhibitory Concentration (MIC) SH 415 [7]: 2 | Minimal Inhibitory Concentration (MIC) SE 270 [8]: 4 | Minimal Inhibitory Concentration (MIC) SPY C203 [9]: 0.25 | Minimal Inhibitory Concentration (MIC) SPN P1 [10]: 0.5
